Measured values: patent publication US12662451B2, “Chemical compounds and uses thereof” (GLAXOSMITHKLINE INTELLECTUAL PROPERTY (NO.4) LIMITED, priority 2023, dated 2026)
Where two headings read alike, the source gives them in different places.

How the values were obtained:
[1] = molecular target: T1, recombinant full-length WRN protein (1-1432) (Homo sapiens, UniProt Q14191); assay: WRN unwinding activity, fluorogenic 384-well assay (Example A); assay type: biochemical; details: WRN unwinding activity, Table 2; for IC50: 4 hr, read-out: 4 hr UNW pIC50 (converted)
T1 construct: recombinant full-length WRN protein (1-1432)
T1 sequence (Q14191 whole entry): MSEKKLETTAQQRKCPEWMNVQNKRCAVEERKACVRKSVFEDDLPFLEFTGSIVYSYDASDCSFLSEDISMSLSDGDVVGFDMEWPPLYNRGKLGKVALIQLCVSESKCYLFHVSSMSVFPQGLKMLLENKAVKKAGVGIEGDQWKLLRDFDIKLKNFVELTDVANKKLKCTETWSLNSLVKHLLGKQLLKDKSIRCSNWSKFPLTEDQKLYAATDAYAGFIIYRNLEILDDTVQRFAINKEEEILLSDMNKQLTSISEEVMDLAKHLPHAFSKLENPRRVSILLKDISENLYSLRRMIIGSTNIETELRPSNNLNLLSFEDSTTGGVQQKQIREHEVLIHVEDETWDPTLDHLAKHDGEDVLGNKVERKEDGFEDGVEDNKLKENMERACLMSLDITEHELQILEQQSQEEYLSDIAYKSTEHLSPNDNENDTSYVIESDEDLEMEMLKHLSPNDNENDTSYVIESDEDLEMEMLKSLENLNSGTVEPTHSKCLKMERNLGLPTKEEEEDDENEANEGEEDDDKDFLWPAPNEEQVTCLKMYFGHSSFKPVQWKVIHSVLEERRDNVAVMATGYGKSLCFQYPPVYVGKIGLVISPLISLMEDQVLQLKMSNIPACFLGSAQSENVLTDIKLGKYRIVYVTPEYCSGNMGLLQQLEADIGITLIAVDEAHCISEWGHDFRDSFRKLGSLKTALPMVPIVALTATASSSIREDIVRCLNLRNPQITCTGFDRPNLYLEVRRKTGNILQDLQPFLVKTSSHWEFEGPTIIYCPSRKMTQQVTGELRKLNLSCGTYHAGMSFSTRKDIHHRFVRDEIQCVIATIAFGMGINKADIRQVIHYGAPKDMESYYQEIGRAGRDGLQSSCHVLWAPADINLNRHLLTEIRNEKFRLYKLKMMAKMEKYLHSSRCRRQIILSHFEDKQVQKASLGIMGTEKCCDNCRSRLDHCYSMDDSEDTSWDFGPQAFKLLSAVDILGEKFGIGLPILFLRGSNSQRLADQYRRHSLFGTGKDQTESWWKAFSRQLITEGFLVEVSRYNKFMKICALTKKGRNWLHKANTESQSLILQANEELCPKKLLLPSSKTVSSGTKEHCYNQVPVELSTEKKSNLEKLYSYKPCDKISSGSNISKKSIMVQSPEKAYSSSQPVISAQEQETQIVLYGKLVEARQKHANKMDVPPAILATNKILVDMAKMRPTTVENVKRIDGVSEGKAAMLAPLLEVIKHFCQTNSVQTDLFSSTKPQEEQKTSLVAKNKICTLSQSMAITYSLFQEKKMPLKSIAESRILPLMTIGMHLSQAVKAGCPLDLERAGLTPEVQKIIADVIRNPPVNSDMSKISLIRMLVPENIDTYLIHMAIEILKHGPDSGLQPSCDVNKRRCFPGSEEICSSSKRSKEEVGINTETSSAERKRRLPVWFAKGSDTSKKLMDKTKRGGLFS
In short: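 Read-out is end-point unwinding of a fluorophore/quencher duplex (ex 525, em 598 nm) after 60 min with 200 μM ATP and 12 nM DNA (2× stocks), EDTA stop. Compound first sat 4 h with 200 pM WRN (2× stock) in pH 8.0 Tris buffer; four-parameter fit gives pIC50.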

[2] = tested on: SW48 human colorectal cancer cells; assay: Calculated free drug potency in SW48 cell assay, corrected with media free fraction (Example C); assay type: cell-based; details: Homo sapiens, SW48, SW48 pCC50 corrected with measured free fraction in cell assay media
In short: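 Free drug potency derives from correcting SW48 assay concentrations with the unbound fraction in medium. That fraction came from RED against pH 7.4 PBS, 1 μM nominal compound, 4 h at 37 °C, quantified by LC-MS/MS peak area ratios at T=240 versus T=0 min.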

[3] = tested on: SW48 human colorectal cancer cells (MSI-H cancer cells); assay: SW48 cell viability, CellTiter-Glo, 120 hours (Example B); details: for CC50: Homo sapiens
[4] = Cell culture media unbound percentage and stability by rapid equilibrium dialysis (Example C); assay type: in vitro ADME; details: bovine, cell assay medium (RPMI-1640 with 10% fetal bovine serum), pH 7.4, rapid equilibrium dialysis, 4 hours at 37° C., read-out: Cell Culture Media Binding (% unbound)
In short: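 Percent unbound in cell assay medium came from the LC-MS/MS receiver:donor peak area ratio, with stability taken as the 240 min over 0 min ratio. Set-up: 1 μM nominal compound in medium dialysed against pH 7.4 PBS (100 mM phosphate, 150 mM NaCl), 4 h, 37° C, shaken, in triplicate.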

[5] = tested on: SW48 human colorectal cancer cell line xenografts; assay: In vivo efficacy in mouse model bearing SW48 xenografts (Example D); details: SW48 xenograft, female nude mice
Description: In Viva Efficacy Study of Test Compounds in Mouse Model Bearing SW48 Human Colorectal Cancer Cell Line Xenografts
Experiments were performed with female Crl:Nu-Foxn1^nu nude mice. Animals were housed under optimized hygienic condition with food and water at libitum and a 12 h:12 h light:dark cycle. Animals were allowed to acclimatize for at least 4 days before being enrolled in the experimental design.
SW48 human colorectal cancer cells (RRID:CVCL1724) were obtained from ATCC. The cells were cultured in RPMI 1640 with 10% Fetal Bovine Serum at 37° C. in atmosphere of 5% CO2 in air. To establish SW48 xenografts, cells were harvested and resuspended in serum free RPM11640 and Matrigel before inoculation and 5×10^6 SW48 tumor cells were injected subcutaneously in 100 μL volume using 27G1/2 needle. Cells were inoculated in the right hind flank of the animals.
Post cell inoculation, tumor growth was monitored daily, and animals were randomized into treatment groups (n=10/group) once the tumor volume reached an appropriate size (80-150 mm^3). Throughout the treatment period, both tumor volume and body weight were measured approximately twice a week. The tumor size, in mm^3, was computed using the formula: 0.5×L×W^2, where W=width and L=length of the tumor. To prepare a test compound for oral administration, between 30-120 mg of the test compound was dissolved in a vehicle solution consisting of 0.5% Methycellulose (cp 400) and 0.5% Tween 80. The compound was freshly prepared one hour prior to daily administration. If turbidity was observed, the solution was vortexed at over 2000 rpm for 10 minutes and mixed with a 1 mL syringe. The resulting solution formulation was utilized for in vivo studies.
Animals received either a vehicle or test compounds at dosage of 30 or 100 mg/kg daily through oral gavage (10 ml/kg). Body weight was measured twice a week using the Ohaus electronic scale (STX421) and the data was automatically added to the study log. Moreover, daily clinical observations were performed to closely monitor the animals. Tumor growth inhibition was computed using the following formula:
[formula] where T=current group value; T0=Current group initial value; C=Control group Value; C0=control group initial value.
Data of tumor volume were exported and analyzed in GraphPad Prism (9.5). The analysis included a two-way ANOVA test, comparing the vehicle control vs. treatments at different time points, followed by a Tukey HSD post hoc test.
The calculation of tumor regression was conducted as per the following formula:
[formula] where Day 0=treatment start day; Δ tumor volume=mean tumor volume on the evaluation day—mean tumor volume Day 0.

[6] = tested on: SW48 human colorectal cancer cells (MSI-H cancer cells)
[7] = SW48, 120 h, read-out: SW48 pCC50, SW48 cell viability, 120 hours incubation (converted), Table 2
[8] = SW48, read-out: SW48 pCC50, measured potency from Example B, as repeated in Table 3 (converted)

| SMILES | IC50 [1] [nM] | CC50 [2] [nM] | CC50 [3, 7] [nM] | CC50 [3, 8] [nM] | fraction unbound at 4 h, 1 µM [4] | mean tumor regression ([5]; 30 mpk daily oral, 23rd day) [%] | SW48 pCC50 ([3]; SW48 cell viability, 120 hours incubation, Table 2) | mean tumor regression ([5]; 100 mpk daily oral, 55th day) [%] | tumor growth inhibition compared to the vehicle control ([5]; 30 mpk daily oral, 21st day) [%] | 4 hr UNW pIC50 [1] | SW48 pCC50 [6] | mean tumor regression ([5]; 30 mpk orally once a day, 21st day) [%] |
| --- | --- | --- | --- | --- | --- | --- | --- | --- | --- | --- | --- | --- |
| Cc1nc2cc(S(=O)(=O)N(C)c3ccc([C@H]4C[C@@H](N5CCC(F)(F)C5)C[C@@H](C(=O)Nc5ccc(C(F)(F)F)cc5F)[C@@H]4C(=O)O)cc3)ccc2n1C [Example 306, (1R,2R,4R,6S)-4-(3,3-difluoropyrrolidin-1-yl)-2-((2-fluoro-4-(trifluoromethyl)phenyl)carbamoyl)-6-(4-((N,1,2-trimethyl-1H-benzo[d]imidazole)-5-sulfonamido)phenyl)cyclohexane-1-carboxylic acid] | 5.01 | 10.2 | 100 | 100 | 0.103 | −73.2 | – | – | – | – | – | – |
| Cc1nc2cc(S(=O)(=O)N(C)c3ccc([C@H]4CCC[C@@H](C(=O)Nc5ccc(C(F)(F)F)cc5F)[C@@H]4C(=O)O)cc3)ccc2n1C (single isomer, unassigned) [Example 83] | 2.51 | 12.9 | – | 251 | 0.065 | – | 6.6 | −24.01 | – | – | – | – |
| COC[C@@H]1C[C@H](c2ccc(N(C)S(=O)(=O)c3ccc4c(c3)nc(C)n4C)cc2)[C@@H](C(=O)O)[C@H](C(=O)Nc2ccc(C(F)(F)F)cc2F)C1 (single isomer, unassigned) [Example 250] | 6.31 | 8.51 | 316 | 316 | 0.027 | – | – | – | 72.95 | – | – | – |
| Cc1nc2cc(S(=O)(=O)Nc3ccc([C@H]4CCC[C@@H](C(=O)Nc5ccc(C(F)(F)F)cc5F)[C@@H]4C(=O)O)cc3)ccc2[nH]1 (relative stereo) [Example 259, rel-(1R,2R,6S)-2-((2-fluoro-4-(trifluoromethyl)phenyl)carbamoyl)-6-(4-((2-methyl-1H-benzo[d]imidazole)-5-sulfonamido)phenyl)cyclohexane-1-carboxylic acid] | – | – | – | – | – | – | – | – | – | 9.2 | 5.4 | – |
| CN(c1ccc([C@H]2CCC[C@@H](C(=O)Nc3ccc(C(F)(F)F)cc3F)[C@@H]2C(=O)O)cc1)S(=O)(=O)c1ccc(-n2cccn2)cc1 [Example 98, (1R,2R,6S)-2-((2-fluoro-4-(trifluoromethyl)phenyl)carbamoyl)-6-(4-((N-methyl-4-(1H-pyrazol-1-yl)phenyl)sulfonamido)phenyl)cyclohexane-1-carboxylic acid] | – | – | – | – | – | – | – | – | – | 8.6 | 5.5 | – |
| CCO[C@@H]1C[C@H](c2ccc(N(C)S(=O)(=O)c3ccc4c(c3)nc(C)n4C)cc2)[C@@H](C(=O)O)[C@H](C(=O)Nc2ccc(C(F)(F)F)cc2F)C1 (single isomer, unassigned) [Example 138] | 3.16 | 17 | 251 | 251 | 0.067 | – | – | – | – | – | – | −74.26 |
| Cc1nc2cc(S(=O)(=O)N(C)c3ccc([C@H]4CCC[C@@H](COc5ccc(C(F)(F)F)cc5)[C@@H]4C(=O)O)cc3)cc([C@@H]3CCCNC3)c2n1C.Cl (stereo in doubt) [Example 210, rel-(1R,2R,6S)-2-((4-(trifluoromethyl)phenoxy)methyl)-6-(4-((N,1,2-trimethyl-7-((S)-piperidin-3-yl)-1H-benzo[d]imidazole)-5-sulfonamido)phenyl)cyclohexane-1-carboxylic acid, hydrochloride] | – | – | – | – | – | – | – | – | – | 5.7 | 4.9 | – |
